Experimental findings from patent US20220364065A1, “COMPOSITION FOR REMOVING PLURIPOTENT STEM CELLS AND METHOD OF REMOVING PLURIPOTENT STEM CELLS” (NATIONAL UNIVERSITY CORPORATION HOKKAIDO UNIVERSITY, priority 2018, published 2022) are described below.

Peptide text beside a SMILES is read from it. * marks the point of attachment. Cbz = O=C(OCc1ccccc1)*; CH2F = FC*

In series [1] the test system is mouse iPS cells. The experiment in a line: Nucleoside neutralization experiment (MTT), iPS cells. The following applies: 10 μM BRQ, 3 days, added up to 500 μM. The source says: (§1) Pyrimidine synthesis is regulated by the de novo (de novo synthesis) pathway and salvage pathway. DHODH is a key factor in de novo synthesis, catalyzing the fourth chemical reaction in the synthetic pathway. In view of this, the present inventor investigated whether the effect of eliminating pluripotent stem cells by DHODH inhibitors could be eliminated by adding nucleosides such as uridine, which is the starting material of the salvage pathway.
(§2) In addition, UMP, a product of the pyrimidine synthesis pathway, is converted to UDP and UTP. Furthermore, uridine diphosphate-N-acetylglucosamine (UDP-GlcNac) is also biosynthesized using UTP as a substrate. […] Therefore, the present inventor verified whether the cytotoxic activity of DHODH inhibitors on pluripotent stem cells could also be neutralized by the products from these UMPs.

The subject of series [2] is mouse ES cells. The experiment in a line: Nucleoside neutralization experiment (MTT), ES cells. The following applies: 10 μM BRQ, 3 days, added up to 500 μM.
Source text: as §1, §2

Series [3] deals with mouse ES cells. The experiment in a line: Immunostaining of pluripotent stem cell markers (Sox2, Nanog, Oct4), ES cells. The class given is cell-based. The settings on record: ES cells, BRQ 10 μM. The protocol:
(§3) The cells were fixed and immunostained as described in Kondo et al., Genes Dev. […] For the culture of ES cells and iPS cells, gelatin-coated ones were used.
(§4) For immunostaining, the cells were first washed once with PBS, then fixed by adding 4% paraformaldehyde and incubating for 10 minutes at room temperature. The cells were replaced with PBS containing 0.3% Triton X100 and incubated for 5 minutes at room temperature, then replaced with PBS containing 0.3% Triton X100 and 10% FCS (blocking solution) and incubated for 30 minutes at room temperature. The solution was replaced with primary antibody solution diluted in blocking solution and incubated for 2 hours at room temperature. After washing three times with PBS, secondary antibody and DAPI solution diluted with blocking solution were added and incubated at room temperature for 2 hours. […] Note that the cell nuclei were visualized by contrast staining with DAPI solution (1 μg/mL, manufactured by Dojindo, product code: D523). In addition, fluorescence images were acquired with an Axiolmager M1 microscope (manufactured by Carl Zeiss).
(§5) LMB is a specific inhibitor of CRM1, also known as Exportin 1.

In series [4] the test system is mouse iPS cells. The experiment in a line: Immunostaining of pluripotent stem cell markers (Sox2, Nanog, Oct4), iPS cells. The series is classed as cell-based. The settings on record: iPS cells, BRQ 10 μM. As for the experimental part: as §3, §4, §5

On to “uridine diphosphate-N-acetylglucosamine [UDP-GlcNac]”, for which the “neutralizing activity against the cytotoxic activity of BRQ” value in the series on mouse iPS cells [1] and in the series on mouse ES cells [2] was “neutralized” in each case.
Turning to `CC(NC(=O)C(NC(=O)OCc1ccccc1)C(C)C)C(=O)NC(CC(=O)O)C(=O)CF` (stereo not drawn) [Z-VAD] (Cbz-Val-Ala-Asp-CH2F; configuration not given here), the “effect on BRQ-dependent cell death” value in the series on mouse ES cells [3] (ZVAD 100 nM) and in the series on mouse iPS cells [4] (ZVAD 100 nM) was “slight delay” throughout.
In the case of `CCC(=C/[C@H](C)C/C=C/C(C)=C/[C@@H](C)C(=O)[C@@H](C)[C@H](O)[C@@H](C)C/C(C)=C/C(=O)O)/C=C/[C@@H]1OC(=O)C=C[C@@H]1C` [LMB, leptomycin B], the “nuclear export of Nanog and Oct4 in cells treated with BRQ” value is “completely suppressed” with mouse ES cells [3] (2 days, LMB 0.15 nM) and “completely suppressed” in the series on mouse iPS cells [4] (2 days, LMB 0.15 nM).
